# US20260262643A1, “HERBICIDAL BENZOXAZINES” (FMC CORPORATION, priority 2022, published 2026)
# Columns and labels:
# ducksalad = experiment: Test D flooded paddy test; assay type: in vivo, Heteranthera limosa; conditions: 250 g ai/ha, applied to paddy water, visual rating after 13 to 14 days, scale 0 to 100 (0 no effect, 100 complete control)
# Outline: (§1)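 Rating scale 0–100 (0 no effect, 100 complete control), visual, versus controls. Readout at 13–14 days after in-water application to 2-leaf plants in pots flooded 3 cm deep.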
# wheat [1] = experiment: Test C postemergence; assay type: in vivo, Triticum aestivum; conditions: 10 days
# Outline: (§2)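 Test material, in non-phytotoxic solvent with surfactant, was sprayed on the soil directly after seeding (preemergence) or on young plants of 2–10 cm with one to two leaves (postemergence). Greenhouse, 10 days; 0–100 visual control scale.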
# barnyardgrass [2] = experiment: Test D flooded paddy test; assay type: in vivo, Echinochloa crus-galli; conditions: 250 g ai/ha, applied to paddy water, visual rating after 13 to 14 days, scale 0 to 100 (0 no effect, 100 complete control)
# Outline: as §1
# corn [3] = experiment: Test C preemergence; assay type: in vivo, Zea mays; conditions: 0 to 100 scale (0 no effect, 100 complete control); for Corn plant response rating: preemergence
# Outline: as §2
# pigweed, palmer [4] = experiment: Test C postemergence; assay type: in vivo, Amaranthus palmeri; conditions: 10 days
# Outline: as §2
# kochia [5] = experiment: Test C preemergence; assay type: in vivo, Bassia scoparia; conditions: 0 to 100 scale (0 no effect, 100 complete control); for Kochia plant response rating: preemergence
# Outline: as §2
# ragweed [6] = experiment: Test C preemergence; assay type: in vivo, Ambrosia artemisiifolia; conditions: 0 to 100 scale (0 no effect, 100 complete control); for Ragweed plant response rating: preemergence
# Outline: as §2
# green foxtail [7] = experiment: Test C preemergence; assay type: in vivo, Setaria viridis; conditions: 0 to 100 scale (0 no effect, 100 complete control); for Foxtail, Green plant response rating: preemergence
# Outline: as §2
# kochia [8] = experiment: Test C postemergence; assay type: in vivo, Bassia scoparia; conditions: 10 days
# Outline: as §2
# rice = experiment: Test D flooded paddy test; assay type: in vivo, Oryza sativa; conditions: 250 g ai/ha, applied to paddy water, visual rating after 13 to 14 days, scale 0 to 100 (0 no effect, 100 complete control)
# Outline: as §1
# wheat [9] = experiment: Test C preemergence; assay type: in vivo, Triticum aestivum; conditions: 0 to 100 scale (0 no effect, 100 complete control); for Wheat plant response rating: preemergence
# Outline: as §2
# oat, wild [10] = experiment: Test C preemergence; assay type: in vivo, Avena fatua; conditions: 0 to 100 scale (0 no effect, 100 complete control); for Oat, Wild plant response rating: preemergence
# Outline: as §2
# horseweed = experiment: Test C postemergence; assay type: in vivo, Erigeron canadensis; conditions: 10 days
# Outline: as §2
# ryegrass, Italian [11] = experiment: Test C preemergence; assay type: in vivo, Lolium multiflorum; conditions: 0 to 100 scale (0 no effect, 100 complete control); for Ryegrass, Italian plant response rating: preemergence
# Outline: as §2
# blackgrass [12] = experiment: Test C postemergence; assay type: in vivo, Alopecurus myosuroides; conditions: 10 days
# Outline: as §2
# blackgrass [13] = experiment: Test C preemergence; assay type: in vivo, Alopecurus myosuroides; conditions: 0 to 100 scale (0 no effect, 100 complete control); for Blackgrass plant response rating: preemergence
# Outline: as §2
# sedge, umbrella = experiment: Test D flooded paddy test; assay type: in vivo, Cyperus difformis; conditions: 250 g ai/ha, applied to paddy water, visual rating after 13 to 14 days, scale 0 to 100 (0 no effect, 100 complete control)
# Outline: as §1
# galium = experiment: Test C postemergence; assay type: in vivo, Galium aparine; conditions: 10 days
# Outline: as §2
# green foxtail [14] = experiment: Test C postemergence; assay type: in vivo, Setaria viridis; conditions: 10 days
# Outline: as §2
# barnyardgrass [15] = experiment: Test C postemergence; assay type: in vivo, Echinochloa crusgalli; conditions: 10 days
# Outline: as §2
# oat, wild [16] = experiment: Test C postemergence; assay type: in vivo, Avena fatua; conditions: 10 days
# Outline: as §2
# ragweed [17] = experiment: Test C postemergence; assay type: in vivo, Ambrosia artemisiifolia; conditions: 10 days
# Outline: as §2
# ryegrass, Italian [18] = experiment: Test C postemergence; assay type: in vivo, Lolium multiflorum; conditions: 10 days
# Outline: as §2
# corn [19] = experiment: Test C postemergence; assay type: in vivo, Zea mays; conditions: 10 days
# Outline: as §2
# barnyardgrass [20] = experiment: Test C preemergence; assay type: in vivo, Echinochloa crusgalli; conditions: 0 to 100 scale (0 no effect, 100 complete control); for Barnyardgrass plant response rating: preemergence
# Outline: as §2
# pigweed, palmer [21] = experiment: Test C preemergence; assay type: in vivo, Amaranthus palmeri; conditions: 0 to 100 scale (0 no effect, 100 complete control); for Pigweed, Palmer plant response rating: preemergence
# Outline: as §2
# soybean [22] = experiment: Test C postemergence; assay type: in vivo, Glycine max; conditions: 10 days
# Outline: as §2
# soybean [23] = experiment: Test C preemergence; assay type: in vivo, Glycine max; conditions: 0 to 100 scale (0 no effect, 100 complete control); for Soybean plant response rating: preemergence
# Outline: as §2
# [24] = 500 g ai/ha, postemergence, 0 to 100 scale (0 no effect, 100 complete control)
# [25] = Postemergence, 125 g ai/ha, 0 to 100 scale (0 no effect, 100 complete control)
# [26] = 125 g ai/ha, postemergence, 0 to 100 scale, 0 no effect, 100 complete control
# [27] = Postemergence, 500 g ai/ha, visual 0 to 100 scale (0 no effect, 100 complete control)
# [28] = Preemergence, 500 g ai/ha, visual rating after 10 days
compound,measurement,setting,value
"Cc1cccc2c1OC(C(F)(F)F)CN2C(=O)c1cccc(-n2cnc(C(C)C)n2)c1 (single isomer, unassigned) [Compound 303]","Plant response rating, Ducksalad (Flood)",ducksalad,80
same,"Plant response rating, Wheat",wheat [1]; [24],50
same,"Plant response rating, Wheat",wheat [1]; [25],30
same,"Plant response rating, Barnyardgrass (Flood)",barnyardgrass [2],0
same,Corn plant response rating,corn [3]; 500 g ai/ha,50
same,Corn plant response rating,"corn [3]; Test C, 125 g ai/ha",0
same,"Plant response rating, Pigweed, Palmer","pigweed, palmer [4]; [24]",80
same,"Plant response rating, Pigweed, Palmer","pigweed, palmer [4]; [25]",40
same,Kochia plant response rating,kochia [5]; 500 g ai/ha,100
same,Kochia plant response rating,"kochia [5]; Test C, 125 g ai/ha",70
same,Ragweed plant response rating,ragweed [6]; 500 g ai/ha,70
same,Ragweed plant response rating,"ragweed [6]; Test C, 125 g ai/ha",0
same,"Foxtail, Green plant response rating",green foxtail [7]; 500 g ai/ha,100
same,"Foxtail, Green plant response rating","green foxtail [7]; Test C, 125 g ai/ha",100
same,"Plant response rating, Kochia",kochia [8]; [24],80
same,"Plant response rating, Kochia",kochia [8]; [25],70
same,"Plant response rating, Rice (Flood)",rice,0
same,Wheat plant response rating,wheat [9]; 500 g ai/ha,100
same,Wheat plant response rating,"wheat [9]; Test C, 125 g ai/ha",70
same,"Oat, Wild plant response rating","oat, wild [10]; 500 g ai/ha",90
same,"Oat, Wild plant response rating","oat, wild [10]; Test C, 125 g ai/ha",50
same,"Plant response rating, Horseweed",horseweed; [24],20
same,"Plant response rating, Horseweed",horseweed; [25],0
same,"Ryegrass, Italian plant response rating","ryegrass, Italian [11]; 500 g ai/ha",100
same,"Ryegrass, Italian plant response rating","ryegrass, Italian [11]; Test C, 125 g ai/ha",90
same,"Plant response rating, Blackgrass",blackgrass [12]; [24],100
same,"Plant response rating, Blackgrass",blackgrass [12]; [25],90
same,Blackgrass plant response rating,blackgrass [13]; 500 g ai/ha,100
same,Blackgrass plant response rating,"blackgrass [13]; Test C, 125 g ai/ha",90
same,"Plant response rating, Sedge, Umbrella (Flood)","sedge, umbrella",90
same,"Plant response rating, Galium",galium; [24],100
same,"Plant response rating, Galium",galium; [25],100
same,"Plant response rating, Foxtail, Green",green foxtail [14]; [24],80
same,"Plant response rating, Foxtail, Green",green foxtail [14]; [25],50
same,"Plant response rating, Barnyardgrass",barnyardgrass [15]; [24],70
same,"Plant response rating, Barnyardgrass",barnyardgrass [15]; [25],20
same,"Plant response rating, Oat, Wild","oat, wild [16]; [24]",70
same,"Plant response rating, Oat, Wild","oat, wild [16]; [25]",50
same,"Plant response rating, Ragweed",ragweed [17]; [24],60
same,"Plant response rating, Ragweed",ragweed [17]; [25],50
same,"Plant response rating, Ryegrass, Italian","ryegrass, Italian [18]; [24]",90
same,"Plant response rating, Ryegrass, Italian","ryegrass, Italian [18]; [25]",60
same,"Plant response rating, Corn",corn [19]; [24],80
same,"Plant response rating, Corn",corn [19]; [25],20
same,Barnyardgrass plant response rating,barnyardgrass [20]; 500 g ai/ha,100
same,Barnyardgrass plant response rating,"barnyardgrass [20]; Test C, 125 g ai/ha",40
same,"Pigweed, Palmer plant response rating","pigweed, palmer [21]; 500 g ai/ha",100
same,"Pigweed, Palmer plant response rating","pigweed, palmer [21]; Test C, 125 g ai/ha",100
same,"Plant response rating, Soybean",soybean [22]; [24],100
same,"Plant response rating, Soybean",soybean [22]; [25],100
same,Soybean plant response rating,soybean [23]; 500 g ai/ha,100
same,Soybean plant response rating,"soybean [23]; Test C, 125 g ai/ha",30
CC(C)c1ncn(-c2ccc(S(=O)(=O)C(F)(F)F)c(C(=O)N3C[C@H](C)Oc4c(Cl)cccc43)c2)n1 [Compound 229],"Plant response rating, Ducksalad (Flood)",ducksalad,0
same,"Plant response rating, Wheat",wheat [1]; [26],0
same,"Plant response rating, Wheat",wheat [1]; [27],0
same,"Plant response rating, Barnyardgrass (Flood)",barnyardgrass [2],0
same,"Plant response rating, Corn",corn [3]; [28],0
same,Corn plant response rating,"corn [3]; Test C, 125 g ai/ha",0
same,"Plant response rating, Pigweed, Palmer","pigweed, palmer [4]; [26]",0
same,"Plant response rating, Pigweed, Palmer","pigweed, palmer [4]; [27]",0
same,"Plant response rating, Kochia",kochia [5]; [28],0
same,Kochia plant response rating,"kochia [5]; Test C, 125 g ai/ha",0
same,"Plant response rating, Ragweed",ragweed [6]; [28],0
same,Ragweed plant response rating,"ragweed [6]; Test C, 125 g ai/ha",0
same,"Plant response rating, Foxtail, Green",green foxtail [7]; [28],0
same,"Foxtail, Green plant response rating","green foxtail [7]; Test C, 125 g ai/ha",0
same,"Plant response rating, Kochia",kochia [8]; [26],0
same,"Plant response rating, Kochia",kochia [8]; [27],0
same,"Plant response rating, Rice (Flood)",rice,0
same,"Plant response rating, Wheat",wheat [9]; [28],0
same,Wheat plant response rating,"wheat [9]; Test C, 125 g ai/ha",0
same,"Plant response rating, Oat, Wild","oat, wild [10]; [28]",0
same,"Oat, Wild plant response rating","oat, wild [10]; Test C, 125 g ai/ha",0
same,"Plant response rating, Horseweed",horseweed; [26],0
same,"Plant response rating, Horseweed",horseweed; [27],0
same,"Plant response rating, Ryegrass, Italian","ryegrass, Italian [11]; [28]",10
same,"Ryegrass, Italian plant response rating","ryegrass, Italian [11]; Test C, 125 g ai/ha",0
same,"Plant response rating, Blackgrass",blackgrass [12]; [26],0
same,"Plant response rating, Blackgrass",blackgrass [12]; [27],0
same,"Plant response rating, Blackgrass",blackgrass [13]; [28],0
same,Blackgrass plant response rating,"blackgrass [13]; Test C, 125 g ai/ha",0
same,"Plant response rating, Sedge, Umbrella (Flood)","sedge, umbrella",0
same,"Plant response rating, Galium",galium; [26],0
same,"Plant response rating, Galium",galium; [27],0
same,"Plant response rating, Foxtail, Green",green foxtail [14]; [26],0
same,"Plant response rating, Foxtail, Green",green foxtail [14]; [27],0
same,"Plant response rating, Barnyardgrass",barnyardgrass [15]; [26],0
same,"Plant response rating, Barnyardgrass",barnyardgrass [15]; [27],0
same,"Plant response rating, Oat, Wild","oat, wild [16]; [26]",0
same,"Plant response rating, Oat, Wild","oat, wild [16]; [27]",0
same,"Plant response rating, Ragweed",ragweed [17]; [26],0
same,"Plant response rating, Ragweed",ragweed [17]; [27],0
same,"Plant response rating, Ryegrass, Italian","ryegrass, Italian [18]; [26]",0
same,"Plant response rating, Corn",corn [19]; [26],0
same,"Plant response rating, Corn",corn [19]; [27],0
same,"Plant response rating, Barnyardgrass",barnyardgrass [20]; [28],0
same,Barnyardgrass plant response rating,"barnyardgrass [20]; Test C, 125 g ai/ha",0
same,"Plant response rating, Pigweed, Palmer","pigweed, palmer [21]; [28]",0
same,"Pigweed, Palmer plant response rating","pigweed, palmer [21]; Test C, 125 g ai/ha",0
same,"Plant response rating, Soybean",soybean [22]; [26],40
same,"Plant response rating, Soybean",soybean [22]; [27],40
same,"Plant response rating, Soybean",soybean [23]; [28],0
same,Soybean plant response rating,"soybean [23]; Test C, 125 g ai/ha",0
